Blank lines part the entries; values can stand above or below the molecule they belong to.
Tests used:
Experiment in all cases: isothermal titration calorimetry
Format in all cases: binding
[1] = biological target: T1, BT0366 (arabinan HTCS sensor), periplasmic domain (Bacteroides thetaiotaomicron, UniProt Q8AAU8); details: 25 °C, HEPES pH 8.0; two-site fit, site 1 (stronger)
T1 construct: gene BT_0366
T1 sequence (Q8AAU8 24-810 limits assumed): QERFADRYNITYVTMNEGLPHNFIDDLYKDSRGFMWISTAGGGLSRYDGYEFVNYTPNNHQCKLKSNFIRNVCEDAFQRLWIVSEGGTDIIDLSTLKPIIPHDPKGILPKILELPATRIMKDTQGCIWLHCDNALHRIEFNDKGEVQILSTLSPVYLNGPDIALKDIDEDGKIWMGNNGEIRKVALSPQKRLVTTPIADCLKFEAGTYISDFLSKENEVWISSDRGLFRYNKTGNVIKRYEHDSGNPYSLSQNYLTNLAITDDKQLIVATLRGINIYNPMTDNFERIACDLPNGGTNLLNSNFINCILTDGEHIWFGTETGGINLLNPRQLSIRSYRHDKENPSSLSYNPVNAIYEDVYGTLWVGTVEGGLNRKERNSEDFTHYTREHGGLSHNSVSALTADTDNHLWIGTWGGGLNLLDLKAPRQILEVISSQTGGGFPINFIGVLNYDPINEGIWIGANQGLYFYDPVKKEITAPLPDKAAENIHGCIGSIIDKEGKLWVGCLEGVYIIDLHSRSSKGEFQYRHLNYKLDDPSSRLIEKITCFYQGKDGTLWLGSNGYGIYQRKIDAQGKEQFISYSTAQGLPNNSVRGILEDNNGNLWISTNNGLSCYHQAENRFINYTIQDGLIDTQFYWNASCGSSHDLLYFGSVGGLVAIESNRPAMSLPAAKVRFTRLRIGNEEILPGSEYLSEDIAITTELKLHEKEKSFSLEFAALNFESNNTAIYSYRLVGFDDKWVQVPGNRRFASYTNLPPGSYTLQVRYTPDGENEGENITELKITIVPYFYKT
Description: isothermal titration calorimetry on BT0366 (arabinan HTCS sensor), periplasmic domain

[2] = biological target: BACOVA_02740 (β-glucan HTCS sensor), periplasmic domain (Bacteroides ovatus, UniProt A0ABU3IRK2); details: 25 °C, HEPES pH 8.0; for Ka / (M^-1): single-site fit
Description: isothermal titration calorimetry on BACOVA_02740 (β-glucan HTCS sensor), periplasmic domain

[3] = biological target: BACOVA_04394 (xylan HTCS sensor), periplasmic domain (Bacteroides ovatus, UniProt A0ABU3IPP8); details: 25 °C, HEPES pH 8.0; for Ka: binding seen, too low to fit (TLTF); for Ka / (M^-1): single-site fit
Description: isothermal titration calorimetry on BACOVA_04394 (xylan HTCS sensor), periplasmic domain

Chain of BACOVA_02740 (β-glucan HTCS sensor), periplasmic domain (A0ABU3IRK2 21-759 limits assumed): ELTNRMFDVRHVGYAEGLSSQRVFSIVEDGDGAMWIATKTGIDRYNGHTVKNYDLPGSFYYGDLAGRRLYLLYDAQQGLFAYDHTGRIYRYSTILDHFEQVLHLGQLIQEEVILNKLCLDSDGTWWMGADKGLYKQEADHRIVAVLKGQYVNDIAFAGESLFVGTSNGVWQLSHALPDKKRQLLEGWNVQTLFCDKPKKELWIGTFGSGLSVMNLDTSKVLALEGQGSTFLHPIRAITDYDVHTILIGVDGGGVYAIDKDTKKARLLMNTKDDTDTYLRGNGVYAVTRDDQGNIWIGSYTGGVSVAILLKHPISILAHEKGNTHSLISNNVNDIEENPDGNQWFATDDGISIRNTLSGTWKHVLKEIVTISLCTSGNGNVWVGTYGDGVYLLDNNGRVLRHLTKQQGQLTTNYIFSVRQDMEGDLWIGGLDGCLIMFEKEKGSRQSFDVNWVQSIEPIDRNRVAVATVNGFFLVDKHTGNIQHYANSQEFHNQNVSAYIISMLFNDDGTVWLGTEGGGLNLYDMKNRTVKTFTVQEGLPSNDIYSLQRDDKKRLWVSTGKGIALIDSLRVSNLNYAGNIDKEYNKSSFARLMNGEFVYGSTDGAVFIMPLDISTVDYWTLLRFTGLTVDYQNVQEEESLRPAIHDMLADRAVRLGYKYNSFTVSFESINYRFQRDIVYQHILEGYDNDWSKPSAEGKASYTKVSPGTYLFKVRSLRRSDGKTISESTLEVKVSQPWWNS
Chain of BACOVA_04394 (xylan HTCS sensor), periplasmic domain (A0ABU3IPP8 21-805 limits assumed): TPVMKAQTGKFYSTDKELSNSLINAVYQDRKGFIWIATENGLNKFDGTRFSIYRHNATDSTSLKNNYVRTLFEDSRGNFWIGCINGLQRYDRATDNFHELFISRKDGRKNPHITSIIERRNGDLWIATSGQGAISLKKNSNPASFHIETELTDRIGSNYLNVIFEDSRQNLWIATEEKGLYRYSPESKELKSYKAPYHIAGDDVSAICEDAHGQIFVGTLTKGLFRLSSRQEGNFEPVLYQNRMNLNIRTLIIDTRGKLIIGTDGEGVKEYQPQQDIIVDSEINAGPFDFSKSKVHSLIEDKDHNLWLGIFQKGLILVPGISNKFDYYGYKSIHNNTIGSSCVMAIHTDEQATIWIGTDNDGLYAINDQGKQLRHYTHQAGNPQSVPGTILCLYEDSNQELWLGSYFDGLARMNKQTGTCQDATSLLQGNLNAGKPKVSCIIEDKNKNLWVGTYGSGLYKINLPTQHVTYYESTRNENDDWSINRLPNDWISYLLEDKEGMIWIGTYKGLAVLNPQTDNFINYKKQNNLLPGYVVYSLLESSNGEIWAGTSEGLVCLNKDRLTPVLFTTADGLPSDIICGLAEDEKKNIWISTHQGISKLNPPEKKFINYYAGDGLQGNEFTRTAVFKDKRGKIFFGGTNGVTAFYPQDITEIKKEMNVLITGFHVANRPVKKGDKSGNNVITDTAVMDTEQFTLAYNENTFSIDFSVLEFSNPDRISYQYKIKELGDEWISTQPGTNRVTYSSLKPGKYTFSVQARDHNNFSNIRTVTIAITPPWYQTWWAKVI

Structure (SMILES): OC[C@@H]1O[C@@H](OC[C@@H]2O[C@@H](OC[C@@H]3O[C@@H](OC[C@@H]4O[C@@H](OC[C@@H]5O[C@@H](OC[C@@H]6O[C@@H](OC[C@@H]7OC(O)[C@H](O)[C@H]7O)[C@H](O)[C@H]6O)[C@H](O)[C@H]5O)[C@H](O)[C@H]4O)[C@H](O)[C@H]3O)[C@H](O)[C@H]2O)[C@H](O)[C@H]1O (stereo partly drawn) [Arabinoheptaose]
- Ka / (M^-1) [1]: 3.5E4±0.6

Structure (SMILES): OC[C@@H]1O[C@@H](OC[C@@H]2O[C@@H](OC[C@@H]3O[C@@H](OC[C@@H]4O[C@@H](OC[C@@H]5O[C@@H](OC[C@@H]6OC(O)[C@H](O)[C@H]6O)[C@H](O)[C@H]5O)[C@H](O)[C@H]4O)[C@H](O)[C@H]3O)[C@H](O)[C@H]2O)[C@H](O)[C@H]1O (stereo partly drawn) [Arabinohexaose]
- Ka / (M^-1) [1]: 3.9E3±0.9

Structure (SMILES): OC[C@@H]1O[C@@H](OC[C@@H]2O[C@@H](OC[C@@H]3O[C@@H](OC[C@@H]4O[C@@H](OC[C@@H]5O[C@@H](OC[C@@H]6O[C@@H](OC[C@@H]7O[C@@H](OC[C@@H]8OC(O)[C@H](O)[C@H]8O)[C@H](O)[C@H]7O)[C@H](O)[C@H]6O)[C@H](O)[C@H]5O)[C@H](O)[C@H]4O)[C@H](O)[C@H]3O)[C@H](O)[C@H]2O)[C@H](O)[C@H]1O (stereo partly drawn) [Arabinooctaose]
- Ka / (M^-1) [1]: 4.8E4±0.1

Structure (SMILES): OC[C@H]1O[C@@H](O[C@@H]2[C@@H](O)[C@H](O[C@H]3[C@H](O)[C@@H](O)[C@H](O[C@H]4[C@H](O)[C@@H](O)[C@H](O[C@H]5[C@H](O)[C@@H](O)C(O)O[C@@H]5CO)O[C@@H]4CO)O[C@@H]3CO)O[C@H](CO)[C@H]2O)[C@H](O)[C@@H](O)[C@@H]1O (stereo partly drawn) [Glucopentaose A (β3,4,4,4)]
- Ka ([2]; binding seen, too low to fit (TLTF)): ∼5.0×10^2

Structure (SMILES): OC[C@H]1O[C@@H](O[C@H]2[C@H](O)[C@@H](O)[C@H](O[C@H]3[C@H](O)[C@@H](O)[C@H](O[C@H]4[C@H](O)[C@@H](CO)OC(O)[C@@H]4O)O[C@@H]3CO)O[C@@H]2CO)[C@H](O)[C@@H](O)[C@@H]1O (stereo partly drawn) [Glucotetraose B (β4,4,3)]
- Ka / (M^-1) [2]: 2.5E3±1.3

More lines, now with the values ahead:

- Ka / (M^-1) [2]: 3.2E4±0.7
Structure (SMILES): OC[C@H]1O[C@@H](O[C@H]2[C@H](O)[C@@H](O)[C@H](O[C@@H]3[C@@H](O)[C@H](O[C@H]4[C@H](O)[C@@H](O)C(O)O[C@@H]4CO)O[C@H](CO)[C@H]3O)O[C@@H]2CO)[C@H](O)[C@@H](O)[C@@H]1O (stereo partly drawn) [Glucotetraose C (β4,3,4)]

- Ka / (M^-1) [2]: 3.4E3±1.9
Structure (SMILES): OC[C@H]1O[C@@H](O[C@H]2[C@H](O)[C@@H](O)[C@H](O[C@H]3[C@H](O)[C@@H](CO)OC(O)[C@@H]3O)O[C@@H]2CO)[C@H](O)[C@@H](O)[C@@H]1O (stereo partly drawn) [Glucotriose B (β4,3)]

- Ka [3]: ∼5.0×10^2
Structure (SMILES): OC1OC[C@@H](O[C@@H]2OC[C@@H](O)[C@H](O)[C@H]2O)[C@H](O)[C@H]1O (stereo partly drawn) [Xylobiose]

- Ka [3]: ∼5.0×10^2
Structure (SMILES): OC1OC[C@@H](O[C@@H]2OC[C@@H](O[C@@H]3OC[C@@H](O[C@@H]4OC[C@@H](O[C@@H]5OC[C@@H](O[C@@H]6OC[C@@H](O)[C@H](O)[C@H]6O)[C@H](O)[C@H]5O)[C@H](O)[C@H]4O)[C@H](O)[C@H]3O)[C@H](O)[C@H]2O)[C@H](O)[C@H]1O (stereo partly drawn) [Xylohexaose]

- Ka / (M^-1) [3]: 8.8E4±2.9
Structure (SMILES): OC1OC[C@@H](O[C@@H]2OC[C@@H](O[C@@H]3OC[C@@H](O[C@@H]4OC[C@@H](O[C@@H]5OC[C@@H](O)[C@H](O)[C@H]5O)[C@H](O)[C@H]4O)[C@H](O)[C@H]3O)[C@H](O)[C@H]2O)[C@H](O)[C@H]1O (stereo partly drawn) [Xylopentaose]

- Ka / (M^-1) [3]: 6.8E5±1.2
Structure (SMILES): OC1OC[C@@H](O[C@@H]2OC[C@@H](O[C@@H]3OC[C@@H](O[C@@H]4OC[C@@H](O)[C@H](O)[C@H]4O)[C@H](O)[C@H]3O)[C@H](O)[C@H]2O)[C@H](O)[C@H]1O (stereo partly drawn) [Xylotetraose]

- Ka / (M^-1) [3]: 1.1E3±0.1
Structure (SMILES): OC1OC[C@@H](O[C@@H]2OC[C@@H](O[C@@H]3OC[C@@H](O)[C@H](O)[C@H]3O)[C@H](O)[C@H]2O)[C@H](O)[C@H]1O (stereo partly drawn) [Xylotriose]
